Read-outs that look alike come from different tables or passages of the source.
Experiments:
[1] = biological target: T1, human adenosine A3 receptor (Homo sapiens, UniProt P0DMS8); test: Competition binding, [125I]-ABMECA, hA3 CHO membranes; details: mean ± SEM
T1 construct: expressed in transfected cells; host or cells: CHO cells (membrane preparation)
T1 sequence (P0DMS8 1-318): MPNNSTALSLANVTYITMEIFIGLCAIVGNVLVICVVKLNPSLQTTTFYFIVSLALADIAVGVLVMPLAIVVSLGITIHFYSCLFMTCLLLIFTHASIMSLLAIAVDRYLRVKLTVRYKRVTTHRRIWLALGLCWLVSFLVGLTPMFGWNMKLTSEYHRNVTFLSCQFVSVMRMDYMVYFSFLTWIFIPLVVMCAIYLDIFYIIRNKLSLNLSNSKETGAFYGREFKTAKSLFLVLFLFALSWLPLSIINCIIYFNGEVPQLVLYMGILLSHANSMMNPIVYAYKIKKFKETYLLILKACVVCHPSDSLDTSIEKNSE

[2] = biological target: T2, human adenosine A2B receptor (Homo sapiens, UniProt P29275); test: cAMP assay, inhibition of NECA-stimulated cAMP levels in hA2B CHO cells; details: read-out: Receptor hA2B IC50; cAMP stimulated by NECA (100 nM); mean ± SEM
T2 sequence (P29275 1-332): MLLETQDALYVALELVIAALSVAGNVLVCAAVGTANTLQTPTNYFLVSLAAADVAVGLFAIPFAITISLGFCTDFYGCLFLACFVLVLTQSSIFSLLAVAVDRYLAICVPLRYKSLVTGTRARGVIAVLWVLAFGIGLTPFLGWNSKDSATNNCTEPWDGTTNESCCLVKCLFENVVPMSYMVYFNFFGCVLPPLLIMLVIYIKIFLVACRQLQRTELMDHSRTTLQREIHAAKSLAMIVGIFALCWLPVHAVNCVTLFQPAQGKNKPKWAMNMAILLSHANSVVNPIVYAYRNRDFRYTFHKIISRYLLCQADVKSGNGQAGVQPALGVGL

[3] = biological target: T3, human adenosine A2A receptor (Homo sapiens, UniProt P29274); test: cAMP assay in hA2A CHO cells, basal or with CGS 21680; assay type: cell-based; parameters: expressed in transfected cells; host or cells: CHO cells; details: for IC50: mean ± SEM
T3 sequence (P29274 whole entry): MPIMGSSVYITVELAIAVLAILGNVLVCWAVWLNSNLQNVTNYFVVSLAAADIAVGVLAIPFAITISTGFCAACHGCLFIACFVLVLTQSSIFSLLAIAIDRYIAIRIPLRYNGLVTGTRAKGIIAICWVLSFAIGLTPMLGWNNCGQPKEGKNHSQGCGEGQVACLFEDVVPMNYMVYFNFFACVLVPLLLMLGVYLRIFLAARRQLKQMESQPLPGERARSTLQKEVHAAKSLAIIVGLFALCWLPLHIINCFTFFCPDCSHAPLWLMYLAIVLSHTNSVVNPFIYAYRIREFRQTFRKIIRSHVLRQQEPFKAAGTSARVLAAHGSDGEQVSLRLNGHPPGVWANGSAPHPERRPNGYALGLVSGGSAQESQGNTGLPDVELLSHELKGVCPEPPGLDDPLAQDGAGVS
Method: For the membranes preparation the culture medium was removed, and the cells were washed with a saline phosphate-buffered solution collected with hypotonic buffer (5 mM Tris HCl, 1 mM EDTA, pH 7.4).
CHO cells transfected with the adenosine receptors were washed with a phosphate-buffered saline solution, detached with trypsin and centrifuged for 10 minutes at 200 g. […] The reaction was terminated by addition of cold 6% trichloroacetic acid (TCA). The TCA suspension was centrifuged at 2000 g for 10 minutes at 4° C. and the supernatant was extracted four times with diethyl ether with water. The final aqueous solution was tested for the cAMP levels by a competition protein binding assay with a cAMP-binding protein. The standard samples of cAMP (0-10 pmoli) were added to each test tube containing the incubation buffer (trizma base 0.1 M, aminophylline 8.0 mM, 2 mercaptoethanol 6.0 mM, pH 7.4) and [^3H]-cAMP. The binding protein previously prepared from beef adrenals, was added to the samples previously incubated at 4° C. for 150 minutes, and after the addition of charcoal were centrifuged at 2000 g for 10 min.
(§1) The statistical analysis of the data was performed using ANOVA followed by Dunnett's test. […] KH and KL were obtained by using a two sites binding model and Graph PAD Prism (San Diego, Calif., USA). The values of IC50 obtained in the cAMP assays were calculated by non-linear regression analysis using the equation for a sigmoid concentration-response curve. All data are expressed as the mean±SEM of four independent experiments each performed in duplicate for in vitro assays and n=8-10 mice/group for in vivo assays.

[4] = biological target: T3, human adenosine A2A receptor; test: Competition binding, [3H]-ZM 241385, hA2A CHO membranes
[5] = biological target: T4, human adenosine A1 receptor (Homo sapiens, UniProt P30542); test: Competition binding, [3H]-DPCPX, hA1 CHO membranes; details: read-out: Receptor hA1 Ki, mean ± SEM
T4 sequence (P30542 1-326): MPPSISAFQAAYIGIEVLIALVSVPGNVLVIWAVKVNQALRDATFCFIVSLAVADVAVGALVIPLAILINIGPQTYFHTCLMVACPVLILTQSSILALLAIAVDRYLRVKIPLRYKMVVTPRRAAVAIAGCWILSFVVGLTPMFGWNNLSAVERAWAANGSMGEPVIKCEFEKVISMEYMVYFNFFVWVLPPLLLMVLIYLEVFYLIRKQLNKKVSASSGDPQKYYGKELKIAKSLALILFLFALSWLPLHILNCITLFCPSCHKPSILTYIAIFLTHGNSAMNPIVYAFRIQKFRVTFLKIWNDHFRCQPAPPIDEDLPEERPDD

[6] = test system: Female CD1 mice; test: Writhing test (acetic acid-induced abdominal constrictions); assay type: in vivo; details: for Dose-response curve, Writhing Test: P<0.001, one-way ANOVA
Method: Female CD1 mice (22-24 g) were obtained from Charles River (Milano, Italia). The animals were kept under standard environmental temperature conditions (22±2° C.) and under moisture-controlled conditions with 12 hours light/dark cycle and food and water ad libitum. The animals were acclimated to the laboratory settings for at least 1 hour before testing and were used only once throughout the experiments. All the procedures used in the present study were carried out in accordance with the European Communities Council Directives (86/609/EEC) and the National Laws and Policies (D.L.116/92) after authorization from the Italian Ministry for Health (4/2014-B). In addition, the experimental procedures were in agreement with the current guidelines for the care of laboratory animals and the ethical guidelines for investigations of experimental pain in conscious animals (Couto M. Methods Mol Biol 2011; 770:579-599).
The acetic acid-induced writhing response was performed after intraperitoneal injection of 10 ml/Kg of 0.6% acetic acid solution. The response to the abdominal constrictions induced by acetic acid was evaluated after the intraperitoneal injection of 10 ml/kg of a 0.6% solution of acetic acid. The compounds under evaluation were dissolved in DMSO and then diluted in a saline solution. The carrier consists of saline solution and 5% of DMSO. A writhe is indicated by stretching of the abdomen followed by the extension of the hind limbs. The animals (8 mice per group) were placed singly in a glass cylinder and the number of writhing episodes of abdominal contractions was counted in a 30 minutes period. The compounds were administered intraperitoneally 15 minutes before injection of acetic acid solution.
as §1

[7] = CGS 21680 (10 nM), read-out: IC50 cAMP, in presence of CGS 21680
[8] = CGS 21680 (10 nM), read-out: Emax cAMP, in presence of CGS 21680
[9] = basal cAMP, read-out: IC50 cAMP, in absence of CGS 21680
[10] = efficacy versus basal cAMP production, read-out: Emax cAMP, in absence of CGS 21680
[11] = read-out: Receptor hA2A Ki, [3H]-ZM 241385, single affinity value, mean ± SEM

| Compound | Ki [1] | IC50 [2] | IC50 [3, 7] | Emax [3, 8] | IC50 [3, 9] | Emax [3, 10] | Ki [4, 11] | Ki [5] | Dose-response curve, Writhing Test [6] | Anti-nociceptive activity, Writhing Test ([6]; intraperitoneal) | Ki [4] | ED50 ([6]; Mus musculus, ip, intraperitoneal, 15 minutes before acetic acid) |
| --- | --- | --- | --- | --- | --- | --- | --- | --- | --- | --- | --- | --- |
| COc1ccc(CNc2nc(N)c3nc(-c4ccco4)sc3n2)cc1 [Compound 2, 2-(furan-2-yl)-N^5-(4-methoxybenzyl)[1,3]thiazolo[5,4-d]pyrimidin-5,7-diamine] | 381 ± 37 nM | 283 ± 27 nM | 123 ± 11 nM | 116 ± 11% | 187 ± 16 nM | 38 ± 4% | 171 ± 16 nM | 163 ± 12 nM |  |  |  |  |
| COc1cccc(CNc2nc(N)c3nc(-c4ccco4)sc3n2)c1 [Compound 3, 2-(furan-2-yl)-N^5-(3-methoxybenzyl)[1,3]thiazolo[5,4-d]pyrimidin-5,7-diamine] | 92 ± 8 nM | 452 ± 42 nM |  |  |  |  |  | 8.16 ± 0.72 nM | dose-dependent effect | potency similar to morphine | 26 ± 2 nM |  |
| Nc1nc(NCc2cccc(O)c2)nc2sc(-c3ccco3)nc12 [Compound 4, 3-(((7-amino-2-(furan-2-yl)[1,3]thiazolo[5,4-d]pyrimidin-5-yl)amino)methyl) phenol] | 55 ± 4 nM | 24 ± 3 nM | 22 ± 2 nM | 139 ± 13% | 27 ± 2 nM | 68 ± 7% | 20 ± 2 nM | 27 ± 3 nM |  |  |  |  |
| Nc1nc(NCc2ccccn2)nc2sc(-c3ccco3)nc12 [Compound 8, 2-(furan-2-yl)-N^5-(pyridin-2-ylmethyl)[1,3]thiazolo[5,4-d]pyrimidin-5,7-diamine] | 59 ± 5 nM | 95 ± 9 nM | 1.3 ± 0.1 nM | 128 ± 11% | 0.68 ± 0.06 nM | 54 ± 5% | 0.42 ± 0.04 nM | 28 ± 3 nM |  |  |  |  |
| Nc1nc(NCc2cccc(F)c2)nc2sc(-c3ccco3)nc12 [Compound 9, N^5-(3-fluorobenzyl)-2-(furan-2-yl)[1,3]thiazolo[5,4-d]pyrimidin-5,7-diamine] | 35 ± 4 nM | 103 ± 10 nM |  |  |  |  | 0.82 ± 0.07 nM | 8.51 ± 0.76 nM |  |  |  |  |
| CCCNc1nc(N)c2nc(-c3ccco3)sc2n1 [Compound 11, 2-(furan-2-yl)-N^5-propyl-[1,3]thiazolo[5,4-d]pyrimidin-5,7-diamine] | 35 ± 4 nM | 323 ± 28 nM |  |  |  |  | 17 ± 2 nM | 64 ± 10 nM |  |  |  |  |
| CCCCNc1nc(N)c2nc(-c3ccco3)sc2n1 [Compound 12, N^5-butyl-2-(furan-2-yl)[1,3]thiazolo[5,4-d]pyrimidin-5,7-diamine] | 23 ± 3 nM | 185 ± 17 nM |  |  |  |  | 8.21 ± 0.78 nM | 41 ± 5 nM |  |  |  |  |
| Nc1nc(NCc2ccsc2)nc2sc(-c3ccco3)nc12 [Compound 13, 2-(furan-2-yl)-N^5-(thiophen-3-ylmethyl)[1,3]thiazolo[5,4-d]pyrimidin-5,7-diamine] | 3.14 ± 0.29 nM | 8.96 ± 0.82 nM | 0.41 ± 0.03 nM | 137 ± 13% | 0.36 ± 0.04 nM | 67 ± 6% | 0.25 ± 0.02 nM | 8.12 ± 0.71 nM |  |  |  |  |
| Nc1nc(NCc2ccncc2)nc2sc(-c3ccco3)nc12 [Compound 14, 2-(furan-2-yl)-N^5-(pyridin-4-ylmethyl)[1,3]thiazolo[5,4-d]pyrimidin-5,7-diamine] | 827 ± 48 nM | 33 ± 2 nM | 18.7 ± 1.6 nM | 122 ± 10% | 15.3 ± 1.2 nM | 43 ± 4% | 12 ± 1 nM | 47 ± 4 nM |  |  |  |  |
| Nc1nc(NCc2cnccn2)nc2sc(-c3ccco3)nc12 [Compound 15, 2-(furan-2-yl)-N^5-(pyrazin-2-ylmethyl)[1,3]thiazolo[5,4-d]pyrimidin-5,7-diamine] | 157 ± 14 nM | 13.2 ± 1.2 nM | 11.3 ± 0.96 nM | 117 ± 10% | 8.27 ± 0.72 nM | 48 ± 4% | 5.14 ± 0.48 nM | 25 ± 4 nM |  |  |  |  |
| Nc1nc(NCCc2ccco2)nc2sc(-c3ccco3)nc12 [Compound 16, 2-(furan-2-yl)-N^5-(2-(furan-2-yl)ethyl)[1,3]thiazolo[5,4-d]pyrimidin-5,7-diamine] | 23 ± 2 nM | 14 ± 1 nM | 4.26 ± 0.37 nM | 121 ± 11% | 2.93 ± 0.22 nM | 56 ± 6% | 2.15 ± 0.19 nM | 5.24 ± 0.46 nM |  |  |  |  |
| Nc1nc(NCCc2cccnc2)nc2sc(-c3ccco3)nc12 [Compound 17, 2-(furan-2-yl)-N^5-(2-(pyridin-3-yl)ethyl)[1,3]thiazolo[5,4-d]pyrimidin-5,7-diamine] | 174 ± 11 nM | 4.21 ± 0.32 nM | 0.35 ± 0.04 nM | 141 ± 14% | 0.29 ± 0.03 nM | 71 ± 7% | 0.24 ± 0.01 nM | 2.61 ± 0.22 nM |  |  |  |  |
| CN1CC[C@]23c4c5ccc(O)c4O[C@H]2[C@@H](O)C=C[C@H]3[C@H]1C5 [morphine, reference compound] |  |  |  |  |  |  |  |  | dose-dependent effect |  |  | 0.123 ± 0.01 mg/kg |
